In brackets after ≈: the same amount, converted by molar mass. Entries after “also recorded” stand apart in the source; their conditions may differ. Read-outs that look alike come from different tables or passages of the source. Numbered stars: 1 amine (or outer) side, 2 acyl side, 3 side chain; on linkers, the order of the positions; unused ones are H or OH. Square brackets hold non-standard residues; d marks the D form. Peptide text beside a SMILES is read from it. * marks the point of attachment. Diphenylacetyl = O=C(C(c1ccccc1)c1ccccc1)*; Phe(4-Me) = Cc1ccc(C[CH](N)C(=O)O)cc1; NMeβAla = CN(CCC(=O)[*:2])[*:1]; Cha = N[CH](CC1CCCCC1)C(=O)O; Chg = N[CH](C(=O)O)C1CCCCC1; X1 = C1CCC2(CC1)CCN(*)CC2; Dab = NCC[CH](N)C(=O)O; Bz = O=C(c1ccccc1)*
Legend:
[1] = test system: Ras signaling pathway (Raf/ERK and PI3K/AKT); experiment: Western blot of RAS signaling pathways in EGF-stimulated serum starved hTERT-RPE cells; format: cell-based, human; settings: 50 μM, 0.5% DMSO, 2 h before EGF 50 ng/mL 10 min
Procedure: Cells were seeded in a media containing 10% FBS for 24 hours and were serum starved (0.5%) for the next 24 hours. Afterwards, they were incubated with different concentrations of the compounds for 2 hours. A successive treatment for 10 minutes with EGF (50 ng/mL) (Sigma-Aldrich) was performed in order to activate cell signaling.
Proteins were resolved by SDS-PAGE and transferred onto PVDF membranes (Immobilon-P, Millipore). Non-specific binding of the antibodies was assessed by incubating the membranes for 1 hour at room temperature with a buffer composed of 20 mM Tris-HCl pH 7.5, 150 mM NaCl, 0.05% Tween 20 and 5% bovine serum albumin. Protein expression was determined by probing the blots overnight at 4° C. with the specified antibodies:anti-c-RAF (BD Transduction 610151, 1:500); anti-phospho-c-RAF S338 (Cell Signaling 9427, 1:500); anti-PI3Kp110a (Cell Signaling 4249, 1:1000); anti-AKT (Cell Signaling 9272, 1:1000); anti-phospho-AKT S473 (Cell Signaling 4060, 1:1000); anti-phospho-AKT Thr308 (Cell Signaling 4056, 1:1000); anti-p44/42 MAPK (ERK1/2) (Cell Signaling 9102, 1:2000); anti-phospho-p44/42 MAPK(ERK1/2) T202/Y204 (Cell Signaling 4370, 1:2000); anti-GAP120 (Santa Cruz SC-63, 1:200); anti-HA (Sigma-Aldrich H6908, 1:1000); or anti-α-tubulin (Sigma-Aldrich T9026, 1:2000). Next, after washing the membranes they were incubated with the corresponding HRP-coupled secondary antibodies (goat anti-rabbit BioRad 170-6515 or goat anti-mouse BioRad 170-6516, 1:3000) for 60 minutes at room temperature and washed again. Protein detection was performed by enhanced chemiluminescence (EZ-ECL, Biological Industries). Emitted light was captioned and quantified (ChemiDoc, BioRad).
For analysis of RAS signalling, cells were lysed in a buffer containing 67 mM Tris-HCl pH 6.8 and 2% SDS and then the samples were heated at 97° C. for 15 minutes. After this, the protein concentration of the lysates was assayed using the Lowry method. An aliquot of 15 μg of protein per sample was loaded onto the gels.
GAP120 detection was used as control.
To consider a peptidomimetic as a positive hit, it should inhibit the activity of the two protein cascades, and as a consequence the phosphorylation of the RAF (P-RAF), AKT (P-AKT) and ERK (P-ERK) should not be observed.

[2] = Solubility in water at 5% DMSO; format: physicochemical
From the text: (§1) The methods used are well known and would be known to one of skill in the art. As a control, we evaluated the solubility in water which contained 5% DMSO to identify any possible issue related with a low solubility. Data are expressed as the mean±SD.

PAMPA assay = format: in vitro ADME; settings: for Pe / Retention %: mean±SD
From the text: As part of our analysis, we evaluated IP-14-01, IP-14-03 and IP-14-08 and their biophysical properties by studying them using a solution of 5% DMSO in water. We conducted a permeability through biological barriers (PAMPA assay) and their internalization in SH-SY5Y cells.
as §1

[3] = test system: pancreatic adenocarcinoma human cell lines (MPanc-96, HPAF-II, PA-TU-8902, SW1990, PA-TU 8988T, PANC-1); format: cell-based; settings: cancer cell lines versus hTERT-RPE, MTS
Procedure: Cells cultured in 10% FCS were treated with compound (I) in a dose range from 0 to 25 µM and incubated for 24 h, when cell viability was determined by MTS assay. Experiment was repeated 3 times. Differences were assessed using one-way ANOVA and Tukey Multiple Comparisons Test and considered significant when p≤0.05.
10,000 cells in 50 μL of 10% FBS-containing medium, were cultured for 24 h and then treated with the drugs (50 μL final volume) for a further 24 h in each well of a 96-well plate (100 μL final volume). MTS viability assay (CellTiter 96® Aqueous One Solution Cell Proliferation Assay, Promega G3580) was performed following the manufacturer's specifications. The absorbance of each well was measured with a multimode plate reader (Spark, Tecan) at 490 nm. The percentage of cell viability was calculated by dividing the absorbance of each well by the average absorbance of the control wells (which had no significant deviation when Student's t-test was applied).
We next incubated IPR-473 at several concentrations with different cancer cell lines and a normal cell line (-hTERT-RPE cells). Cell viability was measured by a MTS cell proliferation assay. […] Cells were placed in a 96-well plate culture containing 10% FBS (Bilogical Industries)-containing medium. (10000 cell per well). These cells were then cultured for 24 hours and then treated with IPR-473 at concentrations of 10 μM, 15 μM, 20 μM and 25 μM for a further 24 hours incubation.
The different cell lines used included human pancreatic cancer cells MPANC-96, human pancreatic adenocarcinoma cells HPAF-II, human pancreatic grade II adenocarcinoma PA-TU, human pancreatic ductaladenocarcinoma SW1990, human pancreas adenocarcinoma 8988-T and human pancreatic ductal carcinoma PANC-1. Each of these comprises a pancreatic tumor cell line. The control as stated was hTERT-RPE cells and that are not cancerigenous.

[4] = Solubility in PBS with 15% β-cyclodextrin; format: physicochemical; settings: 1 mM, 24 hours agitation, supernatant by HPLC; mean±SD
Procedure: xxxxx Furthermore, an additional effort was done to reevaluate those peptidomimetics from the first generation that were not soluble in the in vitro assay conditions or formed aggregates as described above when incubated with the RPE cells.
We then put these peptidomimetics under constant agitation for 24 hours. […] Data are expressed as the mean±SD.

**Q.** For `CC(NC(=O)C(CN)NC(=O)CCN(C)C(=O)C(Cc1ccc(-c2ccccc2)cc1)NC(=O)C(c1ccccc1)c1ccccc1)C(=O)N1CCCC1` (stereo not shown) [IP-14-01], which “Inhibition of RAS-effectors protein cascades (P-RAF, P-AKT, P-ERK) by Western blot” value [1] is on record?
**A.** The value was “able to inhibit the two RAS-effectors protein cascades; also recorded: most potent inhibitor”.

**Q.** What about the “Solubility (in words)” value [2] of the same compound?
**A.** Its value is “good solubility”.

**Q.** What about the solubility [2] of the same compound?
**A.** The solubility was 1333 ± 13 µM (≈ 974 µg/mL).

**Q.** And the Transport % (PAMPA assay)?
**A.** The Transport % was 0%.

**Q.** What about the Pe (PAMPA assay) of the same compound?
**A.** Its Pe is 5.6e-10 ± 3.1e-10 cm/s.

**Q.** And the Retention % (PAMPA assay)?
**A.** Its Retention % is 55.7 ± 7.1%.

**Q.** And the “specificity cancer cells versus normal cells (cell viability)” value [3]?
**A.** Its value is “did not show cell-line specificity”.

**Q.** For `NCCCCC(NC(=O)C(Cc1ccccc1)NC(=O)C(CC1CCCC1)NC(=O)c1c2ccccc2cc2ccccc12)C(=O)N1CCCC1` (stereo not shown) [IP-14-02], which “Inhibition of RAS-effectors protein cascades (P-RAF, P-AKT, P-ERK) by Western blot” value [1] is on record?
**A.** Its value is “able to inhibit the RAF and AKT but not ERK”.

**Q.** What does the source list for `CC(NC(=O)C(NC(=O)CCN(C)C(=O)C(CN)NC(=O)C(c1ccccc1)c1ccccc1)C1CCCCC1)C(=O)N1CCC2(CCCCC2)CC1` (stereo not shown) [IP-14-03]?
**A.** Inhibition of RAS-effectors protein cascades (P-RAF, P-AKT, P-ERK) by Western blot [1]: able to inhibit the two RAS-effectors protein cascades; Solubility (in words) [2]: good solubility; solubility [2]: 549 ± 90 µM (≈ 400 µg/mL); Transport % (PAMPA assay): 0%; Pe (PAMPA assay): 1.6e-09 ± 3.6e-10 cm/s; Retention % (PAMPA assay): 77.9 ± 2.4%

**Q.** Which “Conc. in PBS β-cyclodextrin 15%” value [4] does the source give for `CC(C)CC(NC(=O)CCCN(C)C(=O)C(CCCN)NC(=O)C(Cc1cccc2ccccc12)NC(=O)c1c2ccccc2cc2ccccc12)C(=O)N1CCC2(CCCCC2)CC1` (stereo not shown) [IP-14-04] here?
**A.** Its value is 780 ± 30 µM.

**Q.** For `CC(C)CC(NC(=O)COc1ccc(C(C)(C)C)cc1)C(=O)NC(Cc1cccc2ccccc12)C(=O)NC(CCCCN)C(=O)N1CCCCC1` (stereo not shown) [IP-14-05], which “Conc. in PBS β-cyclodextrin 15%” value [4] is on record?
**A.** Its value is 849 ± 43 µM.

**Q.** For `CCC(C)C(NC(=O)C(c1ccccc1)c1ccccc1)C(=O)NC(CCc1ccccc1)C(=O)NC(CCCCN)C(=O)N1CCC2(CCCCC2)CC1` (stereo not shown) [IP-14-07], which “Conc. in PBS β-cyclodextrin 15%” value [4] is on record?
**A.** The value was 766 ± 19 µM.

**Q.** For `CC(C)CC(NC(=O)C(Cc1ccccc1)NC(=O)C1CCCN1C(=O)C(CCN)NC(=O)c1ccccc1)C(=O)N1CCC2(CCCCC2)CC1` (stereo not shown) [IP-14-08] (Bz-[Dab]PFL-X1; configuration not given here), which “Inhibition of RAS-effectors protein cascades (P-RAF, P-AKT, P-ERK) by Western blot” value [1] is on record?
**A.** The value was “able to inhibit the two RAS-effectors protein cascades”.

**Q.** What about the “Solubility (in words)” value ([2]; water at 5% DMSO) of the same compound?
**A.** The value was “good solubility”.

**Q.** And the solubility ([2]; water at 5% DMSO, mean±SD, read-out: Solubility)?
**A.** Its solubility is 1320 ± 22 µM (≈ 942 µg/mL).

**Q.** And the Transport % (PAMPA assay)?
**A.** The Transport % was 0%.

**Q.** And the Pe (PAMPA assay)?
**A.** Its Pe is 0 cm/s.

**Q.** And the Retention % (PAMPA assay)?
**A.** Its Retention % is 97.6 ± 5.0%.

**Q.** With `CC(C)CC(NC(=O)COc1ccc(C(C)(C)C)cc1)C(=O)NC(Cc1cccc2ccccc12)C(=O)NC(CN)C(=O)N1CCC2(CCCCC2)CC1` (stereo not shown) [IP-14-09] as the compound, how does the “Conc. in PBS β-cyclodextrin 15%” value [4] read?
**A.** The value was 949 ± 8 µM.

**Q.** With `Cc1ccc(CC(NC(=O)C(c2ccccc2)c2ccccc2)C(=O)N(C)CCC(=O)NC(CC2CCCCC2)C(=O)NC(C(=O)N2CCCC2C(N)=O)C2CCCCC2)cc1` (stereo not shown) [IPR-471] (Diphenylacetyl-[Phe(4-Me)][NMeβAla][Cha][Chg]P-NH2; configuration not given here) as the compound, how does the “Inhibition of RAS-effectors protein cascades (P-RAF, P-AKT, P-ERK) by Western blot” value [1] read?
**A.** The value was “not better than IP-14-01”.

**Q.** For `CC(C)CC(NC(=O)C(CN)N(C)C(=O)CCN(C)C(=O)C(Cc1ccc(-c2ccccc2)cc1)NC(=O)C(c1ccccc1)c1ccccc1)C(=O)N1CCCC1` (stereo not shown) [IPR-473], which “Inhibition of RAS-effectors protein cascades (P-RAF, P-AKT, P-ERK) by Western blot” value [1] is on record?
**A.** The value was “able to inhibit all the two different protein cascades (RAF/ERK and PI3K/AKT) more effectively than even IP-14-01; also recorded: highest degree of inhibition of the RAS effectors”.

**Q.** And the “specificity cancer cells versus normal cells (cell viability)” value [3]?
**A.** The value was “high specificity for pancreatic cancer cell lines”.

**Q.** For `CC(O)C(NC(=O)CCN(C)C(=O)C(Cc1ccc(-c2ccccc2)cc1)NC(=O)C(c1ccccc1)c1ccccc1)C(=O)NC(C(=O)N1CCCC1)C1CCCCC1` (stereo not shown) [IPR-474], which “Inhibition of RAS-effectors protein cascades (P-RAF, P-AKT, P-ERK) by Western blot” value [1] is on record?
**A.** The value was “not better than IP-14-01”.
